Reference: ChEMBL document CHEMBL2216752, “Carnitine palmitoyltransferase (CPT) modulators: a medicinal chemistry perspective on 35 years of research” (J Med Chem, 2011)

Columns and labels:
[1] = target: T1, Carnitine O-palmitoyltransferase 1, liver isoform (Homo sapiens, UniProt P50416); test: Inhibition of human CPT1A
T1 sequence (P50416 whole entry): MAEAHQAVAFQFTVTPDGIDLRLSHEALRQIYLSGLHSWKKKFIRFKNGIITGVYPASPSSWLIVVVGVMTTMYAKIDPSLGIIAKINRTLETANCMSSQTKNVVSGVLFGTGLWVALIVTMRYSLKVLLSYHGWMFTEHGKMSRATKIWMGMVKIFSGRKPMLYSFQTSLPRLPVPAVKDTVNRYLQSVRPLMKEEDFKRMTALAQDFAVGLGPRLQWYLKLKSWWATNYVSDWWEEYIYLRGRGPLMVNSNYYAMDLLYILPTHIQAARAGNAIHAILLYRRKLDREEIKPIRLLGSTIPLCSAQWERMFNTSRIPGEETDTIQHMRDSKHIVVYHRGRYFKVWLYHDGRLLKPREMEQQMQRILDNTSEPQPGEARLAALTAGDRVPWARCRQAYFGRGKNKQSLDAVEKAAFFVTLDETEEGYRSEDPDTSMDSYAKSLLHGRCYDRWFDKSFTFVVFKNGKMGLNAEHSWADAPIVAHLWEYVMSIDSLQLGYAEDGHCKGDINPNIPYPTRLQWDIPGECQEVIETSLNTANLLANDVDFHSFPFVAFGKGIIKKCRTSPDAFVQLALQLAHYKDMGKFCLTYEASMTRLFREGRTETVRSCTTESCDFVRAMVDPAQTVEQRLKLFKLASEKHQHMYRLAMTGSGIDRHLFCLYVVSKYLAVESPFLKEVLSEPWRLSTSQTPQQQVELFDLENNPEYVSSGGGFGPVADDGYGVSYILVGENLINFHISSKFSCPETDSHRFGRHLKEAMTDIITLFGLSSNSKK

[2] = target: T2, Carnitine O-palmitoyltransferase 2, mitochondrial (Rattus norvegicus, UniProt P18886); test: Inhibition of CPT2 in 24 hrs fasted rat liver mitochondria assessed as palmitoylcarnitine oxidation by radiometry
T2 sequence (P18886 whole entry): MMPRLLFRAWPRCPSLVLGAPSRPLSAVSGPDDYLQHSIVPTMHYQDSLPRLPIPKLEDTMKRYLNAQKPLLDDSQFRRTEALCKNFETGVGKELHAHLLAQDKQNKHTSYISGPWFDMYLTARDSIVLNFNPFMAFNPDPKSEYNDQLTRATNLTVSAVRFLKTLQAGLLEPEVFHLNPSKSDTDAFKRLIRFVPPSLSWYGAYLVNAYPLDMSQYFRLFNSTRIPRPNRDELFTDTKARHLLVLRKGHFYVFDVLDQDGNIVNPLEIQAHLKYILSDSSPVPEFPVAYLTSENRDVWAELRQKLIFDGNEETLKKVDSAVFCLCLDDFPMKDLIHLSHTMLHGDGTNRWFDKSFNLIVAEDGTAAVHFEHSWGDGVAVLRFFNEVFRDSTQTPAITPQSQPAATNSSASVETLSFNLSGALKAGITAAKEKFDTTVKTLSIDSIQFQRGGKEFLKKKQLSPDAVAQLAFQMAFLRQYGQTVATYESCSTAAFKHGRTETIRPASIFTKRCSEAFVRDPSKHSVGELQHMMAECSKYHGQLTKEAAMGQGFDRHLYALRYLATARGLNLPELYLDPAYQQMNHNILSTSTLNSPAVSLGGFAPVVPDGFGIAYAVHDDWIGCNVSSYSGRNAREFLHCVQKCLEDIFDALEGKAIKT

[3] = Inhibition of carnitine palmitoyltransferase in 24 hrs fasted rat liver mitochondria assessed as palmitoylcarnitine oxidation by radiometry
[4] = target: T3, Carnitine O-palmitoyltransferase 2, mitochondrial (Homo sapiens, UniProt P23786); test: Inhibition of human CPT2
T3 sequence (P23786 whole entry): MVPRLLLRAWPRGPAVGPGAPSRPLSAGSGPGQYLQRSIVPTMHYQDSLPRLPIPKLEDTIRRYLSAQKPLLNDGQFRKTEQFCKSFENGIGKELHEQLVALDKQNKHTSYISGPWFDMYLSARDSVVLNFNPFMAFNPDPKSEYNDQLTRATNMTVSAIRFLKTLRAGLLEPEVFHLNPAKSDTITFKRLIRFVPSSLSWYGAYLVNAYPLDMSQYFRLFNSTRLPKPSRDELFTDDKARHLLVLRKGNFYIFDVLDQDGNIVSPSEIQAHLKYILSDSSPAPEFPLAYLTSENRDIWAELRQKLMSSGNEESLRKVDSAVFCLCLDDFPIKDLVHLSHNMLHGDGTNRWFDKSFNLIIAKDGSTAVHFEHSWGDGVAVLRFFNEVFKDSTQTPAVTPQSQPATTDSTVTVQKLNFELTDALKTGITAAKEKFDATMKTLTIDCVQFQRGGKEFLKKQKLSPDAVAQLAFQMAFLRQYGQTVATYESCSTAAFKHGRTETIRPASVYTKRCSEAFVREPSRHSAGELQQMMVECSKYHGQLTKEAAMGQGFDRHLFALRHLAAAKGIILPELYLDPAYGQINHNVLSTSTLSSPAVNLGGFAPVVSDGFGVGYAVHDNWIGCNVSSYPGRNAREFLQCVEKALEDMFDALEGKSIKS

[5] = Inhibition of carnitine palmitoyltransferase in 20 hrs fasted Sprague-Dawley rat liver mitochondria assessed as palmitoylcarnitine oxidation by radiometry
[6] = Inhibition of carnitine palmitoyltransferase in rat mitochondria
[7] = target: T4, Carnitine O-palmitoyltransferase 1, muscle isoform (Homo sapiens, UniProt Q92523); test: Inhibition of human CPT1B
T4 sequence (Q92523 whole entry): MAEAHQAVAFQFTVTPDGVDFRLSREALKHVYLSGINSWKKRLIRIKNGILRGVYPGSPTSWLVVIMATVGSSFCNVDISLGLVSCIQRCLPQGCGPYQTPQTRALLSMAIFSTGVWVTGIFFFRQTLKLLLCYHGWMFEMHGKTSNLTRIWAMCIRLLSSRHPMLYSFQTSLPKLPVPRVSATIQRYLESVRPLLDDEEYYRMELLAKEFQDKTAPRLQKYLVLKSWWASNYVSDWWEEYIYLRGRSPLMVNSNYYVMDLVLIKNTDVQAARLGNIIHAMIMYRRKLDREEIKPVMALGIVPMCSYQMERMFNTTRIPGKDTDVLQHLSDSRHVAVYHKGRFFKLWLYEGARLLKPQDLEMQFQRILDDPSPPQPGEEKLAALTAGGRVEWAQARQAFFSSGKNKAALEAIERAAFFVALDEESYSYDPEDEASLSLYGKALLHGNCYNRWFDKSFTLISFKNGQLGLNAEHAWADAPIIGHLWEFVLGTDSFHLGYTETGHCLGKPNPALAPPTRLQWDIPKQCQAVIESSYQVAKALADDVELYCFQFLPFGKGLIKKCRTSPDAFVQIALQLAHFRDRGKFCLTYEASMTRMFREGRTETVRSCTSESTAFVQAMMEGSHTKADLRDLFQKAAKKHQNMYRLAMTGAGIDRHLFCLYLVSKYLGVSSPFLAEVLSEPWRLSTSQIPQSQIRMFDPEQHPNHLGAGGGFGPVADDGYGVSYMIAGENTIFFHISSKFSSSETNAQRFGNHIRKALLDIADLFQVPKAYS

[8] = target: T2, Carnitine O-palmitoyltransferase 2, mitochondrial; test: Inhibition of rat CPT2
Rattus norvegicus [9] = test: Increase in plasma VLDL level in fasted Wistar rat at 16 mg/kg, ip; type: functional; conditions: route intraperitoneal
Rattus norvegicus [10] = test: Increase in plasma LDL level in fasted Wistar rat at 16 mg/kg, ip; type: functional; conditions: route intraperitoneal
Rattus norvegicus [11] = test: Increase in plasma TG level in fasted Wistar rat at 16 mg/kg, ip; type: functional; conditions: route intraperitoneal
Rattus norvegicus [12] = test: Increase in plasma FFA level in fasted Wistar rat at 16 mg/kg, ip; type: functional; conditions: route intraperitoneal
Rattus norvegicus [13] = test: Reduction in plasma glucose level in fasted Wistar rat at 16 mg/kg, ip; type: functional; set-up: scale not given: the % may be the effect or the level left; conditions: route intraperitoneal
Rattus norvegicus [14] = test: Reduction in palmitate oxidation in rat liver mitochondria at 18 mg/kg, ip administered as single dose measured 24 hrs post dose; type: functional; set-up: scale not given: the % may be the effect or the level left; conditions: route intraperitoneal
[15] = Inhibition of carnitine palmitoyltransferase in 20 hrs fasted Sprague-Dawley rat liver mitochondria assessed as palmitate oxidation by radiometry
[16] = target: T2, Carnitine O-palmitoyltransferase 2, mitochondrial; test: Inhibition of rat CPT2 in rat mitochondria
[17] = target: T5, Carnitine O-palmitoyltransferase 1, liver isoform (Rattus norvegicus, UniProt P32198); test: Inhibition of rat CPT1 in rat mitochondria
T5 sequence (P32198 whole entry): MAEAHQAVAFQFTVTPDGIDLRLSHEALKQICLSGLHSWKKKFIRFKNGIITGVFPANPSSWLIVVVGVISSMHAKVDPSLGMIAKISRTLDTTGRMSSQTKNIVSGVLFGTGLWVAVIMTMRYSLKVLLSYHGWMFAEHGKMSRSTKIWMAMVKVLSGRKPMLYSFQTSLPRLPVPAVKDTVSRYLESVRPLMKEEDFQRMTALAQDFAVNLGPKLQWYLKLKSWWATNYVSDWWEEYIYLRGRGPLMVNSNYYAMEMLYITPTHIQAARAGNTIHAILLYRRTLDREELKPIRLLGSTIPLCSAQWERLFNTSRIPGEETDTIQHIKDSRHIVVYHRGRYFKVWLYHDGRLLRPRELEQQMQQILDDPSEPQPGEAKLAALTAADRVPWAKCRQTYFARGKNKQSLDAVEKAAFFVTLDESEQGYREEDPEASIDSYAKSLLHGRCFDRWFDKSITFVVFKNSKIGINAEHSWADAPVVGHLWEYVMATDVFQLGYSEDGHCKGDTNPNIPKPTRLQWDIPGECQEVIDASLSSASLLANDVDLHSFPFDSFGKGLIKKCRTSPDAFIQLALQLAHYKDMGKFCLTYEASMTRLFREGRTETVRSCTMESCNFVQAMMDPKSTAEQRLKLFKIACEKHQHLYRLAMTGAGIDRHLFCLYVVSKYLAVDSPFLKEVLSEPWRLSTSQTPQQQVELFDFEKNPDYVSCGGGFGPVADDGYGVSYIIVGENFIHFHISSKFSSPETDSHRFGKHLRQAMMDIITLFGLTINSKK

[18] = target: T5, Carnitine O-palmitoyltransferase 1, liver isoform; test: Inhibition of rat CPT1A
[19] = target: T1, Carnitine O-palmitoyltransferase 1, liver isoform; test: Inhibition of CPT1 in liver mitochondria
[20] = Inhibition of Phospholipase A2
[21] = Inhibition of human FAO
[22] = target: Carnitine O-palmitoyltransferase 1, muscle isoform (Rattus norvegicus, UniProt Q63704); test: Inhibition of […] in rat myocardium; type: tissue-based
[23] = Inhibition of rat FAO

Chain of Carnitine O-palmitoyltransferase 1, muscle isoform (Rattus norvegicus, UniProt Q63704) (Q63704 whole entry, canonical isoform): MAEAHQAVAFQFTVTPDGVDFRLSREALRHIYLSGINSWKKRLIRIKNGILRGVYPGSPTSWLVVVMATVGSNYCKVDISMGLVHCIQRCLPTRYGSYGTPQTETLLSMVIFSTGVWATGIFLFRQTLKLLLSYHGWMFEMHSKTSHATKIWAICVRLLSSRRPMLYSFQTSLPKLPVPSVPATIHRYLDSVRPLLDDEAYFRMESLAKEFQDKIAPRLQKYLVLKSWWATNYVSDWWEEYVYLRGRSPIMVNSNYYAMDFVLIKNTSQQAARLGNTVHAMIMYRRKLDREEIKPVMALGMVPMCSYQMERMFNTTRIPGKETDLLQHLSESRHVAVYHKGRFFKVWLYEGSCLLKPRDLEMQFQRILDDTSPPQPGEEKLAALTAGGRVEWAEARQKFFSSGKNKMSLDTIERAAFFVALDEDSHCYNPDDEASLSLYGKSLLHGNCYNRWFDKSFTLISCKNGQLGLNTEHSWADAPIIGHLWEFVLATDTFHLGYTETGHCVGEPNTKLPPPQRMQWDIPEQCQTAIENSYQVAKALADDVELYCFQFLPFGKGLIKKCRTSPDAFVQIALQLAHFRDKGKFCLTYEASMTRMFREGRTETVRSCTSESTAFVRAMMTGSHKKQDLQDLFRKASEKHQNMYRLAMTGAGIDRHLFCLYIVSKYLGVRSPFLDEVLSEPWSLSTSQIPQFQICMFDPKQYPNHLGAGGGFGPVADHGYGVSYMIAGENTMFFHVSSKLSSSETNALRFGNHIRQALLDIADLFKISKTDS

Question: Which IC50 [1] does the source give for `C[N+](C)(C)C[C@H](N)CC(=O)[O-]` here?
Answer: 76.4 µM

Question: And the IC50 [2]?
Answer: 0.8 µM

Question: What about the IC50 [3] of the same molecule?
Answer: 5.4 µM

Question: What about the IC50 [4] of the same molecule?
Answer: 3.9 µM

Question: And the IC50 [5]?
Answer: 12 µM

Question: What about the IC50 [6] of the same molecule?
Answer: 3.2 µM

Question: What about the IC50 [7] of the same molecule?
Answer: > 100 µM

Question: And the IC50 [8]?
Answer: 5.1 µM

Question: And the Activity (Rattus norvegicus [9])?
Answer: 1034%

Question: What about the Activity (Rattus norvegicus [10]) of the same molecule?
Answer: 88%

Question: And the Activity (Rattus norvegicus [11])?
Answer: 684%

Question: What about the Activity (Rattus norvegicus [12]) of the same molecule?
Answer: 244%

Question: What about the Activity (Rattus norvegicus [13]) of the same molecule?
Answer: 16%

Question: What about the Activity (Rattus norvegicus [14]) of the same molecule?
Answer: 68%

Question: What about the IC50 [15] of the same molecule?
Answer: 3.2 µM

Question: Which IC50 [16] does the source give for `COc1cccc2c1C(=O)c1c(O)c3c(c(O)c1C2=O)C[C@@](O)(C(=O)CO)C[C@@H]3O[C@H]1C[C@H](N)[C@H](O)[C@H](C)O1` [DOXORUBICIN] here?
Answer: > 100 µM

Question: And the IC50 [17]?
Answer: 250 µM

Question: For `CCCCc1ccc(NC(=O)OCCN2CCCCC2CC(C2CCCCC2)C2CCCCC2)cc1` (configuration not stated), which IC50 [8] is on record?
Answer: > 10 µM

Question: What about the IC50 [18] of the same molecule?
Answer: > 10 µM

Question: Which IC50 [19] does the source give for `COc1ccc(CN2CCN(CCCSc3cc(C(C)(C)C)c(O)c(C(C)(C)C)c3)CC2)c(OC)c1OC` here?
Answer: 51 µM

Question: With `COC(=O)C1(C(F)CCCCc2ccccc2)CO1` (configuration not stated) as the molecule, how does the IC50 [20] read?
Answer: 2.6 µM

Question: What does the source list for `COc1ccc(CN2CCNCC2)c(OC)c1OC` [TRIMETAZIDINE]?
Answer: IC50 [1]: > 100 µM; IC50 [4]: > 100 µM; IC50 [21]: 20.5 µM; IC50 [7]: > 100 µM; IC50 [22]: 1.3 µM; IC50 [23]: > 100 µM
